PMC6320941, “Synthesis and Evaluation of 3-Substituted-4-(quinoxalin-6-yl) Pyrazoles as TGF-β Type I Receptor Kinase Inhibitors” (Molecules, 2018)

Key:
p38α MAP kinase = p38α MAP kinase (Homo sapiens, UniProt Q16539); experiment: Radiometric 33PanQinase p38α MAP kinase assay (ProQinase), ATF2 substrate; format: biochemical; details: for remaining activity at 10 µM: compound at 10 μM, in duplicate, read-out: Residual Activity (%) p38α
Source text: We selected p38α MAP kinase to survey the selectivity profile of this series of compounds because its kinase domain is among the most homologous to that of ALK5 [27].
(§1) All kinase experiments were completed by the ProQinase (Freiburg, Germany). All protein kinases were expressed in Sf9 insect cells or in E. coli as recombinant GST-fusion proteins or His-tagged proteins, either as full-length or enzymatically active fragments. All kinases were obtained from human cDNAs and purified by either GSH-affinity chromatography or immobilized metal. The purity of the protein kinases was examined by SDS-PAGE/Coomassie staining. The identity was checked by mass spectroscopy.
(§2) A radiometric protein kinase assay (^33PanQinase® activity assay) was used for measuring the kinase activity of the two protein kinases. All kinase assays were performed in 96-well FlashPlates^TM from PerkinElmer (Boston, MA, USA) in 50 μL reaction volumes. The reaction cocktail was pipetted in four steps in the following order: 20 μL of assay buffer (standard buffer), 5 μL of ATP solution (in H2O), 5 μL of test compound (in 10% DMSO), 20 μL enzyme/substrate mix.
(§3) The assay for all protein kinases contained 70 mM HEPES-NaOH pH 7.5, 3 mM MgCl2, 3 mM MnCl2, 3 μM Na-orthovanadate, 1.2 mM DTT, 50 μg/mL PEG20000, ATP, [γ-^33P]-ATP, protein kinase, and substrate.
(§4) The reaction cocktail was incubated at 30 °C for 60 min. The reaction was halted with 50 μL of 2% (v/v) H3PO4, plates were aspirated and washed two times with 200 μL 0.9% (w/v) NaCl. Incorporation of ^33Pi was established with a microplate scintillation counter (PerkinElmer, Boston, MA, USA). All assays were performed with a BeckmanCoulter/SAGIAN™ Core System.

ALK5 = molecular target: T1, ALK5 (Homo sapiens, UniProt P36897); experiment: Radiometric 33PanQinase ALK5 kinase assay (ProQinase), casein substrate; format: biochemical; details: for remaining activity at 10 µM: compound at 10 μM, in duplicate, read-out: Residual Activity (%) ALK5; for Selectivity Index: IC50 of p38α/IC50 of ALK5; for ALK5 inhibitory activity in words: at up to 5.0 μM for 18a–d, 'at up to 2.26 μM' for pyrimidin-4-yl compounds
T1 sequence (P36897 205-495 limits assumed): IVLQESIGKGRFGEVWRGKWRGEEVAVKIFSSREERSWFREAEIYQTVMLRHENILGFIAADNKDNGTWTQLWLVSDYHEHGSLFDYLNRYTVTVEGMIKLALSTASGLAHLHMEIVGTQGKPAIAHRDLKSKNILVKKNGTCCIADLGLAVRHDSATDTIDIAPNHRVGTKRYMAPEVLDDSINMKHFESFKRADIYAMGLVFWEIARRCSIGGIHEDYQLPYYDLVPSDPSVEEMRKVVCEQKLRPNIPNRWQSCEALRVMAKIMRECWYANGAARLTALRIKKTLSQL
Method: To investigate whether compounds 14a–d, 15a–d, 16a–d, 17a–d, 18a–d, and 19a–d would inhibit ALK5, a kinase assay for preliminary screening was performed using the purified human ALK5 kinase domain produced in Sf9 insect cells and compounds at 10 μM.
as §1, §2, §3, §4

p38α MAP kinase, sequence (Q16539 whole entry, the tested form may be a part): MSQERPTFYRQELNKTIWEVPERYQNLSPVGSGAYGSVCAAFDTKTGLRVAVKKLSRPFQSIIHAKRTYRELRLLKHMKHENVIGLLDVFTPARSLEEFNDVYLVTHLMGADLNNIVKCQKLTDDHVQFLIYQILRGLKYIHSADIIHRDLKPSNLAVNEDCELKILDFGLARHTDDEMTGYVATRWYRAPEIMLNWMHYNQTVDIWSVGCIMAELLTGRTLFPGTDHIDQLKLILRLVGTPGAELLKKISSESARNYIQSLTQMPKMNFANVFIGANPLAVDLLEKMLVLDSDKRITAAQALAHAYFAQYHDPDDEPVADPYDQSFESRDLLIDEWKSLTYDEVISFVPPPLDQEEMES

SMILES | IC50 (p38α MAP kinase) [µM] | remaining activity at 10 µM (p38α MAP kinase) [%] | remaining activity at 10 µM (ALK5) [%] | melting point [°C] | IC50 (ALK5) [µM] | Selectivity Index (ALK5) | fold more selective than compound 3 (LY-2157299) against p38α MAP kinase (ALK5) [fold] | inhibition at 10 µM (ALK5; at 10 µM) [%] | ALK5 inhibitory activity in words (ALK5)
Cc1cccc(-c2nn3c(c2-c2ccnc4ccc(C(N)=O)cc24)CCC3)n1 [Compound 3, LY-2157299, reference compound] | 0.49 | 4 | 1 | – | – | – | – | – | –
CN(C)c1cccc(-c2nn(CC(=O)Nc3ccccc3)cc2-c2ccc3nccnc3c2)n1 [Compound 14a, 2-(3-(6-(Dimethylamino)pyridin-2-yl)-4-(quinoxalin-6-yl)-1H-pyrazol-1-yl)-N-phenylacetamide] | – | 110 | 85 | 212.5 to 214 | – | – | – | – | –
CN(C)c1cccc(-c2nn(CC(=O)Nc3ccccc3F)cc2-c2ccc3nccnc3c2)n1 [Compound 14b, 2-(3-(6-(Dimethylamino)pyridin-2-yl)-4-(quinoxalin-6-yl)-1H-pyrazol-1-yl)-N-(2-fluorophenyl)acetamide] | – | 118 | 84 | 190.5 to 193 | – | – | – | – | –
CN(C)c1cccc(-c2nn(CC(=O)Nc3cccc(F)c3)cc2-c2ccc3nccnc3c2)n1 [Compound 14c, 2-(3-(6-(Dimethylamino)pyridin-2-yl)-4-(quinoxalin-6-yl)-1H-pyrazol-1-yl)-N-(3-fluorophenyl)acetamide] | – | 121 | 37 | 176.5 to 178.5 | – | – | – | – | –
CN(C)c1cccc(-c2nn(CC(=O)Nc3cccc(C#N)c3)cc2-c2ccc3nccnc3c2)n1 [Compound 14d, N-(3-Cyanophenyl)-2-(3-(6-(dimethylamino)pyridin-2-yl)-4-(quinoxalin-6-yl)-1H-pyrazol-1-yl)acetamide] | – | 121 | 95 | 218.5 to 221.5 | – | – | – | – | –
CN(C)c1cccc(-c2c(-c3ccc4nccnc4c3)cnn2CC(=O)Nc2ccccc2)n1 [Compound 15a, 2-(5-(6-(Dimethylamino)pyridin-2-yl)-4-(quinoxalin-6-yl)-1H-pyrazol-1-yl)-N-phenylacetamide] | – | 118 | 95 | – | – | – | – | – | –
CN(C)c1cccc(-c2c(-c3ccc4nccnc4c3)cnn2CC(=O)Nc2ccccc2F)n1 [Compound 15b, 2-(5-(6-(Dimethylamino)pyridin-2-yl)-4-(quinoxalin-6-yl)-1H-pyrazol-1-yl)-N-(2-fluorophenyl)acetamide] | – | 117 | 87 | 130.2 to 133 | – | – | – | – | –
CN(C)c1cccc(-c2c(-c3ccc4nccnc4c3)cnn2CC(=O)Nc2cccc(F)c2)n1 [Compound 15c, 2-(5-(6-(Dimethylamino)pyridin-2-yl)-4-(quinoxalin-6-yl)-1H-pyrazol-1-yl)-N-(3-fluorophenyl)acetamide] | – | 109 | 88 | 146.5 to 147.6 | – | – | – | – | –
CN(C)c1cccc(-c2c(-c3ccc4nccnc4c3)cnn2CC(=O)Nc2cccc(C#N)c2)n1 [Compound 15d, N-(3-Cyanophenyl)-2-(5-(6-(dimethylamino)pyridin-2-yl)-4-(quinoxalin-6-yl)-1H-pyrazol-1-yl)acetamide] | – | 109 | 94 | 145.5 to 148 | – | – | – | – | –
Cc1csc(-c2nn(CC(=O)Nc3ccccc3)cc2-c2ccc3nccnc3c2)n1 [Compound 16a, 2-(3-(4-Methylthiazol-2-yl)-4-(quinoxalin-6-yl)-1H-pyrazol-1-yl)-N-phenylacetamide] | – | 98 | 5 | 190.2 to 192.5 | – | – | – | – | –
Cc1csc(-c2c(-c3ccc4nccnc4c3)cnn2CC(=O)Nc2ccccc2)n1 [Compound 17a, 2-(5-(4-Methylthiazol-2-yl)-4-(quinoxalin-6-yl)-1H-pyrazol-1-yl)-N-phenylacetamide] | – | 68 | 46 | – | – | – | – | – | –
Cc1csc(-c2c(-c3ccc4nccnc4c3)cnn2CC(=O)Nc2ccccc2F)n1 [Compound 17b, N-(2-Fluorophenyl)-2-(5-(4-methylthiazol-2-yl)-4-(quinoxalin-6-yl)-1H-pyrazol-1-yl)acetamide] | – | 54 | 73 | – | – | – | – | – | –
Cc1csc(-c2c(-c3ccc4nccnc4c3)cnn2CC(=O)Nc2cccc(F)c2)n1 [Compound 17c, N-(3-Fluorophenyl)-2-(5-(4-methylthiazol-2-yl)-4-(quinoxalin-6-yl)-1H-pyrazol-1-yl)acetamide] | – | 66 | 69 | – | – | – | – | – | –
Cc1csc(-c2c(-c3ccc4nccnc4c3)cnn2CC(=O)Nc2cccc(C#N)c2)n1 [Compound 17d, N-(3-Cyanophenyl)-2-(5-(4-methylthiazol-2-yl)-4-(quinoxalin-6-yl)-1H-pyrazol-1-yl)acetamide] | – | 97 | 58 | – | – | – | – | – | –
Cc1csc(-c2nn(CC(=S)Nc3ccccc3)cc2-c2ccc3nccnc3c2)n1 [Compound 19a, 2-(3-(4-Methylthiazol-2-yl)-4-(quinoxalin-6-yl)-1H-pyrazol-1-yl)-N-phenylethanethioamide] | > 10 | 102 | 5 | – | 0.57 | >17 | – | – | –
Cc1csc(-c2nn(CC(=S)Nc3ccccc3F)cc2-c2ccc3nccnc3c2)n1 [Compound 19b, N-(2-Fluorophenyl)-2-(3-(4-methylthiazol-2-yl)-4-(quinoxalin-6-yl)-1H-pyrazol-1-yl)ethanethioamide] | > 10 | 92 | 2 | – | 0.28 | >35 | 9.0 | 98 | –
Cc1csc(-c2nn(CC(=S)Nc3cccc(F)c3)cc2-c2ccc3nccnc3c2)n1 [Compound 19c, N-(3-Fluorophenyl)-2-(3-(4-methylthiazol-2-yl)-4-(quinoxalin-6-yl)-1H-pyrazol-1-yl)ethanethioamide] | > 10 | 109 | 2 | – | 0.33 | >30 | – | – | –
Cc1csc(-c2nn(CC(=S)Nc3cccc(C#N)c3)cc2-c2ccc3nccnc3c2)n1 [Compound 19d, N-(3-Cyanophenyl)-2-(3-(4-methylthiazol-2-yl)-4-(quinoxalin-6-yl)-1H-pyrazol-1-yl)ethanethioamide] | > 10 | 105 | 13 | – | 0.37 | >27 | – | – | –
Fc1ccccc1NC(=S)Cn1cc(-c2ccc3nccnc3c2)c(-c2ccncn2)n1 [Compound 27b, N-(2-Fluorophenyl)-2-(3-(pyrimidin-4-yl)-4-(quinoxalin-6-yl)-1H-pyrazol-1-yl)ethanethioamide] | > 10 | – | – | – | > 10 | – | – | – | no significant ALK5 inhibition activity
N#Cc1cccc(NC(=S)Cn2cc(-c3ccc4nccnc4c3)c(-c3ccncn3)n2)c1 [Compound 27d, N-(3-Cyanophenyl)-2-(3-(pyrimidin-4-yl)-4-(quinoxalin-6-yl)-1H-pyrazol-1-yl)ethanethioamide] | > 10 | – | – | – | 2.26 | >4 | – | – | no significant ALK5 inhibition activity
